One may read the EC50 as the concentration needed to bring the measured effect to its halfway point. As a reminder, the IC50 is the concentration at which inhibition is half-maximal. For orientation: CC50 means the concentration that lowers cell viability or growth by half. Low readings indicate harm at low concentration, high ones better tolerance by the cells.

SMILES strings stand for the structures.

One series concerns HBV. Put plainly: Determination of HBV DNA from the supernatants of HepAD38 cells (anti-HBV activity). The format is cell-based, hepatitis B virus. Conditions: Hepatitis B virus, 144 h; HBV DNA in HepAD38 supernatant, day 6, qPCR; read-out: Cell Activity (EC50). The procedure, abridged: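 HepAD38 cells, tetracycline withdrawn to induce HBV, treated with serial half-log compound dilutions; on day 6 HBV DNA purified from filtered supernatant and quantified by real-time PCR against HBV plasmid standards; EC50 from relative copy numbers by non-linear regression, three experiments in triplicate.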

The next series addresses T1, HBV core protein (UniProt P03146).
T1 construct: fused on or other part: BODIPY-FL maleimide label on the C-terminal Cys150
Put plainly: Biochemical capsid assembly assay (fluorescence quenching). Also noted: species or system hepatitis B virus. Conditions: read-out: Assembly Activity (IC50); BODIPY-FL labelled core protein, 300 μM NaCl, read 6 min after start. In outline: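 Purified E. coli-expressed HBV core protein (aa 1-149 plus Cys150), BODIPY-FL maleimide-labelled, at 1.0-2.0 μM in 50 mM HEPES pH 7.5 with 0.5% DMSO was used. Compounds were tested at 8 concentrations (0.5-log dilutions from 100, 31.6 or 10 μM). Assembly was started with NaCl ([…]), and fluorescence quenching was read after 6 min (ex 477/em 525 nm). EC50 was determined by non-linear regression.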

The nature of series [1]: Cell viability assay (AlamarBlue) in HepAD38 cells. Particulars: human. (In general: Resazurin is reduced to fluorescent resorufin, in cell work by metabolically active cells.)

T1 sequence (P03146 whole entry, looked up, the tested form may be a part): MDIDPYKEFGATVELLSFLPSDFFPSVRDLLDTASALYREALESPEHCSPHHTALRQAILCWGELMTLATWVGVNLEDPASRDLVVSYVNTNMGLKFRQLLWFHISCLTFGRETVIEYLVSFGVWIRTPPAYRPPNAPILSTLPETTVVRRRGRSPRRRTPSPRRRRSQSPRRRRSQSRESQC

On to `CON=C(C)c1n[nH]c2c1CN(C(=O)c1cc3ccccc3[nH]1)CC2` [Example 274, {1-[5-(1H-indole-2-carbonyl)-1H,4H,5H,6H,7H-pyrazolo[4,3-c]pyridin-3-yl]ethylidene}(methoxy)amine], for which the EC50 in the series with HBV is 1 to 25 µM. The IC50 on HBV core protein was less than 100 µM. The CC50 at 6 days in series [1] was greater than 10 µM.

As to `O=C(c1cc2ccccc2[nH]1)N1CCc2n[nH]c(C(=O)N3CCCCC34CC4)c2C1` [Example 279, 2-(3-{4-azaspiro[2.5]octane-4-carbonyl}-2H,4H,5H,6H,7H-pyrazolo[4,3-c]pyridine-5-carbonyl)-1H-indole], the EC50 with HBV is less than 1 µM. The concentration for half-maximal inhibition (IC50) on HBV core protein is less than 5 µM. The 50% cytotoxic concentration (CC50) at 6 days in series [1] is greater than 10 µM.

As for `CN(CCN)C(=O)c1[nH]nc2c1CN(C(=O)c1cc3ccccc3[nH]1)CC2` [Example 280, N-(2-aminoethyl)-5-(1H-indole-2-carbonyl)-N-methyl-2H,4H,5H,6H,7H-pyrazolo[4,3-c]pyridine-3-carboxamide], the EC50 with HBV was less than 1 µM. In addition, at HBV core protein, the IC50 was less than 100 µM. Besides, the half-maximal cytotoxic concentration (CC50) at 6 days in series [1] was greater than 10 µM.

With `CNC(=O)c1n[nH]c2c1CN(C(=O)c1cc3ccccc3[nH]1)CC2` [Example 285, 5-(1H-indole-2-carbonyl)-N-methyl-1H,4H,5H,6H,7H-pyrazolo[4,3-c]pyridine-3-carboxamide], in the series on HBV, the 50% effective concentration (EC50) was 1 to 25 µM. At HBV core protein, the IC50 is less than 100 µM. Also, the CC50 at 6 days in series [1] was greater than 10 µM.

`CN(C(=O)c1n[nH]c2c1CN(C(=O)c1cc3c(Cl)cccc3[nH]1)CC2)C1(CO)CC1` [Example 290, 5-(4-chloro-1H-indole-2-carbonyl)-N-[1-(hydroxymethyl)cyclopropyl]-N-methyl-1H,4H,5H,6H,7H-pyrazolo[4,3-c]pyridine-3-carboxamide]: the concentration giving a half-maximal response (EC50) with HBV was less than 1 µM. Besides, the IC50 at HBV core protein was less than 5 µM. This molecule also came in with a 50% cytotoxic concentration (CC50) at 6 days in series [1] greater than 10 µM.

For the molecule `CCc1cccc2[nH]c(C(=O)N3CCc4[nH]nc(C(=O)N(C)C5(CO)CC5)c4C3)cc12` [Example 291, 5-(4-ethyl-1H-indole-2-carbonyl)-N-[1-(hydroxymethyl)cyclopropyl]-N-methyl-1H,4H,5H,6H,7H-pyrazolo[4,3-c]pyridine-3-carboxamide], the 50% effective concentration (EC50) with HBV is less than 1 µM. The IC50 at HBV core protein is less than 5 µM. In series [1], this molecule gave a CC50 at 6 days greater than 10 µM.

On to `CN(CCC#N)C(=O)c1n[nH]c2c1CN(C(=O)c1cc3ccccc3[nH]1)CC2` [Example 292, N-(2-cyanoethyl)-5-(1H-indole-2-carbonyl)-N-methyl-1H,4H,5H,6H,7H-pyrazolo[4,3-c]pyridine-3-carboxamide], for which the concentration for a half-maximal effect (EC50) in the series with HBV lay in the range of 1 to 25 µM. For the same molecule, the half-maximal inhibitory concentration (IC50) on HBV core protein was less than 5 µM. Moreover, the CC50 at 6 days in series [1] was greater than 10 µM.

Turning to `CCN(C(=O)c1n[nH]c2c1CN(C(=O)c1cc3ccccc3[nH]1)CC2)C1(COC)CC1` [Example 296, N-ethyl-5-(1H-indole-2-carbonyl)-N-[1-(methoxymethyl)cyclopropyl]-1H,4H,5H,6H,7H-pyrazolo[4,3-c]pyridine-3-carboxamide], the EC50 in the series with HBV was less than 1 µM. In addition, at HBV core protein, the IC50 is less than 5 µM. The same molecule had a 50% cytotoxic concentration (CC50) at 6 days in series [1] greater than 10 µM.

Take `COCC1(N(C)C(=O)c2n[nH]c3c2CN(C(=O)c2cc4c(F)ccc(F)c4[nH]2)CC3)CC1` [Example 297, 5-(4,7-difluoro-1H-indole-2-carbonyl)-N-[1-(methoxymethyl)cyclopropyl]-N-methyl-1H,4H,5H,6H,7H-pyrazolo[4,3-c]pyridine-3-carboxamide]: in the series on HBV, the half-maximal effective concentration (EC50) is less than 1 µM. Further, the IC50 on HBV core protein is less than 5 µM. For the same molecule, the CC50 at 6 days in series [1] is greater than 10 µM.

As to `COCC1(N(C)C(=O)c2n[nH]c3c2CN(C(=O)c2cc4c(C(F)F)cc(F)cc4[nH]2)CC3)CC1` [Example 298, 5-[4-(difluoromethyl)-6-fluoro-1H-indole-2-carbonyl]-N-[1-(methoxymethyl)cyclopropyl]-N-methyl-1H,4H,5H,6H,7H-pyrazolo[4,3-c]pyridine-3-carboxamide], the half-maximal effective concentration (EC50) with HBV is less than 1 µM. In addition, the IC50 at HBV core protein is less than 5 µM. Further, the half-maximal cytotoxic concentration (CC50) at 6 days in series [1] is greater than 10 µM.

Regarding `COCC1(N(C)C(=O)c2n[nH]c3c2CN(C(=O)c2cc4c(C(F)F)cccc4[nH]2)CC3)CC1` [Example 299, 5-[4-(difluoromethyl)-1H-indole-2-carbonyl]-N-[1-(methoxymethyl)cyclopropyl]-N-methyl-1H,4H,5H,6H,7H-pyrazolo[4,3-c]pyridine-3-carboxamide], the concentration for a half-maximal effect (EC50) in the series on HBV was less than 1 µM. Further, on HBV core protein, the IC50 is less than 5 µM. Also, the half-maximal cytotoxic concentration (CC50) at 6 days in series [1] is greater than 10 µM.

Take `COCC1(N(C)C(=O)c2n[nH]c3c2CN(C(=O)c2cc4cc(F)c(F)cc4[nH]2)CC3)CC1` [Example 300, 5-(5,6-difluoro-1H-indole-2-carbonyl)-N-[1-(methoxymethyl)cyclopropyl]-N-methyl-1H,4H,5H,6H,7H-pyrazolo[4,3-c]pyridine-3-carboxamide]: the EC50 in the series on HBV was less than 1 µM. The IC50 on HBV core protein was less than 5 µM. In series [1], this molecule returned a CC50 at 6 days greater than 10 µM.

Take `COCC1(N(C)C(=O)c2n[nH]c3c2CN(C(=O)c2cc4c(C(F)(F)F)cccc4[nH]2)CC3)CC1` [Example 302, N-[1-(methoxymethyl)cyclopropyl]-N-methyl-5-[4-(trifluoromethyl)-1H-indole-2-carbonyl]-1H,4H,5H,6H,7H-pyrazolo[4,3-c]pyridine-3-carboxamide]: the EC50 in the series on HBV is less than 1 µM. The IC50 at HBV core protein is less than 5 µM. In series [1], the half-maximal cytotoxic concentration (CC50) at 6 days was greater than 10 µM.

`COCC1(N(CC(F)F)C(=O)c2n[nH]c3c2CN(C(=O)c2cc4ccccc4[nH]2)CC3)CC1` [Example 303, N-(2,2-difluoroethyl)-5-(1H-indole-2-carbonyl)-N-[1-(methoxymethyl)cyclopropyl]-1H,4H,5H,6H,7H-pyrazolo[4,3-c]pyridine-3-carboxamide]: in the series with HBV, the EC50 is less than 1 µM. In addition, the IC50 on HBV core protein was less than 5 µM. Besides, the CC50 at 6 days in series [1] is greater than 10 µM.

In the case of `COCC1(N(C(=O)c2n[nH]c3c2CN(C(=O)c2cc4ccccc4[nH]2)CC3)C(C)C)CC1` [Example 304, 5-(1H-indole-2-carbonyl)-N-[1-(methoxymethyl)cyclopropyl]-N-(propan-2-yl)-1H,4H,5H,6H,7H-pyrazolo[4,3-c]pyridine-3-carboxamide], in the series with HBV, the concentration giving a half-maximal response (EC50) is less than 1 µM. The half-maximal inhibitory concentration (IC50) at HBV core protein was less than 5 µM. Moreover, the CC50 at 6 days in series [1] is greater than 10 µM.

Regarding `COCC1(N(C)C(=O)c2n[nH]c3c2CN(C(=O)c2cc4c(F)cc(Cl)cc4[nH]2)CC3)CC1` [Example 305, 5-(6-chloro-4-fluoro-1H-indole-2-carbonyl)-N-[1-(methoxymethyl)cyclopropyl]-N-methyl-1H,4H,5H,6H,7H-pyrazolo[4,3-c]pyridine-3-carboxamide], the EC50 in the series with HBV was less than 1 µM. For the same molecule, on HBV core protein, the IC50 was less than 5 µM. Moreover, the CC50 at 6 days in series [1] is greater than 10 µM.

In the case of `COCC1(N(C)C(=O)c2n[nH]c3c2CN(C(=O)c2cc4c(Cl)ccc(F)c4[nH]2)CC3)CC1` [Example 306, 5-(4-chloro-7-fluoro-1H-indole-2-carbonyl)-N-[1-(methoxymethyl)cyclopropyl]-N-methyl-1H,4H,5H,6H,7H-pyrazolo[4,3-c]pyridine-3-carboxamide], the concentration for a half-maximal effect (EC50) with HBV is less than 1 µM. Moreover, the IC50 at HBV core protein was less than 5 µM. This molecule also came in with a cytotoxic concentration (CC50) at 6 days in series [1] greater than 10 µM.

For the origin of these results see US11236087B2, “Highly active pyrazolo-piperidine substituted indole-2-carboxamides active against the hepatitis B virus (HBV)” (AiCuris GmbH & Co. KG, priority 2017, dated 2022).
